What was measured:
[1] = tested on: glioma cell lines T98G, U87MG and GL261; assay: Clonogenic cell survival assay after irradiation (radiosensitivity of glioma cell lines); assay type: cell-based, human (T98G, U87MG); mouse (GL261); conditions: pure phytocannabinoid used alone, increasing concentrations, 24 h prior to irradiation (0, 1, 2 and 5 Gy, Cs137); FIG. 2 / FIG. 3
Description: The human glioma cell lines T98G and U87MG were obtained from ATCC, and were lines derived from patients with a glioblastoma multiforme tumour and a glioblastoma astrocytoma respectively.
The mouse glioma cell line GL261, which is syngeneic to the C57BL/6 mouse was acquired from the NCI.
Cells were exposed to increasing doses of irradiation and then clonogenic cell survival assays were performed. The ability of the cells to survive an irradiation insult and go on and divide indefinitely forming a colony was assessed in this manner and used as our read-out of radiosensitivity.
(§1) Cells were initially seeded into flasks and left to adhere overnight. […] Cells were then harvested, counted and seeded again at increasing densities in 6-well plates, adjusting the density appropriately for the radiation dose, and then incubated for approximately 14 days. […] Colonies consisting of >50 cells were counted and calculated as a proportion of the number of cells initially seeded (surviving fraction). […]
as §1, with “surviving fraction was calculated.” for “calculated as a proportion of the number of cells initially seeded (surviving fraction).”

[2] = tested on: U87 human glioma cells subcutaneously implanted to nude mice; conditions: cited from earlier work
[3] = tested on: U87 and U373 human glioma cell lines; conditions: cited from earlier work

Row | SMILES | effect on radiosensitivity (surviving fraction) [1] | anti-proliferative effects in-vivo [2] | anti-proliferative effects in-vitro [3]
1 | CCCCCc1cc(O)c2c(c1)OC(C)(C)[C@@H]1CCC(C)=C[C@@H]21 [THC, Tetrahydrocannabinol] | did not appear to alter the radiosensitivity |  | 
2 | C=C(C)[C@@H]1CCC(C)=C[C@H]1c1c(O)cc(CCCCC)cc1O [CBD, Cannabidiol] | did not appear to alter the radiosensitivity | anti-proliferative effects | anti-proliferative effects

— patent publication US20160136127A1, “USE OF TETRAHYDROCANNABINOL AND/OR CANNABIDIOL FOR INCREASING RADIOSENSITVITY IN THE TREATMENT OF A BRAIN TUMOUR” (GW PHARMA LIMITED, priority 2013, published 2016)
